In assay [1] the target is GCN2 kinase (Homo sapiens (Human), UniProt Q9P2K8). Nature of the assay: GCN2 Enzyme Inhibition Assay (Transcreener ADP2 fluorescence polarization). To be noted: 280 μM ATP, 200 μM (RS)7 peptide, 4 nM GCN2, 25° C.; for Ki: Ki(app). It is filed as biochemical. In outline:
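At 25 °C, GCN2 kinase (typical final concentration 4 nM) and (RS)7 peptide in Tris-HCl pH 7.5 buffer with MgCl2, NaCl and DTT were preincubated with compound for 10 min, then ATP was added for a 1 h reaction. ADP was read by FP with antibody/Alexa633 tracer. Non-linear tight-binding analysis gave IC50 and apparent Ki.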

In assay [2] the target is intracellular GCN2 (phosphorylation of the GCN2 substrate eIF2α) (Homo sapiens (Human), UniProt Q9P2K8). Nature of the assay: GCN2 Cellular Inhibition Assay (AlphaScreen SureFire P-eIF2α Ser51, borrelidin-treated U2OS cells). It is filed as cell-based. To be noted: 10 μM borrelidin, 1 h, phosphorylated eIF2α Ser51, read-out: GCN2 Biomarker (IC50). On the procedure: Compounds can be screened for their ability to inhibit intracellular GCN2 using an AlphaScreen assay (Perkin Elmer) to detect phosphorylation of the GCN2 substrate eIF2α in borrelidin-treated cells. U2OS cells are plated at 5,000 cells per well in 384-well white polystyrene plates (Corning 3570) in McCoy's 5A media (GIBCO 26600-023) supplemented with 10% foetal bovine serum (SAFC 12103C), Penicillin/Streptomycin solution diluted 1:100 (Sigma P0781), and 2 mM L-glutamine (Sigma G7513), and allowed to adhere overnight at 37° C. in 5% CO2. Compounds are then added to the cell media from a final concentration of 40 μM in 4-fold serial dilutions. Borrelidin (FluoroChem M01440) is immediately added to the wells to a final concentration of 10 μM and the cells are incubated for 1 h at 37° C. in 5% CO2. After 1 h of treatment with borrelidin, the media is removed, and the cells are lysed with lysis buffer (TGR BioSceinces TGRLB) at ambient temperature.
An AlphaScreen SureFire P-eIF2α (Ser51) assay kit (Perkin Elmer TGREIF2S) was used to measure levels of eIF2α phosphorylated on Serine 51. Anti-phosphorylated eIF2α Ser51 antibody-linked acceptor beads (TGR BioScience 6760617) are added to the cell homogenate (diluted 1:250 into a mixture of activation (TGR BioScience TGRAB) and reaction buffer (TGR BioScience TGREIF2S) prepared immediately before use). The plate is then incubated for 2 h at ambient temperature in the dark. Anti-eIF2α antibody-linked donor beads (TGR BioScience 6760617) were then added (diluted 1:100 in dilution buffer (TGR BioScience TGRDB) prepared immediately before use). The plate is then incubated overnight at ambient temperature in the dark.
Plates are analyzed on an Alpha Technology-compatible PHERAstar FS plate reader (BMG Labtech Version 1.14) to quantify phosphorylated eIF2α Ser51 levels. The percentage inhibition of phosphorylated eIF2α is calculated by comparison to control wells stimulated with borrelidin alone.
(In general: Alpha assays give light when donor and acceptor beads are brought close together.)

Chain of GCN2 kinase (Q9P2K8 whole entry): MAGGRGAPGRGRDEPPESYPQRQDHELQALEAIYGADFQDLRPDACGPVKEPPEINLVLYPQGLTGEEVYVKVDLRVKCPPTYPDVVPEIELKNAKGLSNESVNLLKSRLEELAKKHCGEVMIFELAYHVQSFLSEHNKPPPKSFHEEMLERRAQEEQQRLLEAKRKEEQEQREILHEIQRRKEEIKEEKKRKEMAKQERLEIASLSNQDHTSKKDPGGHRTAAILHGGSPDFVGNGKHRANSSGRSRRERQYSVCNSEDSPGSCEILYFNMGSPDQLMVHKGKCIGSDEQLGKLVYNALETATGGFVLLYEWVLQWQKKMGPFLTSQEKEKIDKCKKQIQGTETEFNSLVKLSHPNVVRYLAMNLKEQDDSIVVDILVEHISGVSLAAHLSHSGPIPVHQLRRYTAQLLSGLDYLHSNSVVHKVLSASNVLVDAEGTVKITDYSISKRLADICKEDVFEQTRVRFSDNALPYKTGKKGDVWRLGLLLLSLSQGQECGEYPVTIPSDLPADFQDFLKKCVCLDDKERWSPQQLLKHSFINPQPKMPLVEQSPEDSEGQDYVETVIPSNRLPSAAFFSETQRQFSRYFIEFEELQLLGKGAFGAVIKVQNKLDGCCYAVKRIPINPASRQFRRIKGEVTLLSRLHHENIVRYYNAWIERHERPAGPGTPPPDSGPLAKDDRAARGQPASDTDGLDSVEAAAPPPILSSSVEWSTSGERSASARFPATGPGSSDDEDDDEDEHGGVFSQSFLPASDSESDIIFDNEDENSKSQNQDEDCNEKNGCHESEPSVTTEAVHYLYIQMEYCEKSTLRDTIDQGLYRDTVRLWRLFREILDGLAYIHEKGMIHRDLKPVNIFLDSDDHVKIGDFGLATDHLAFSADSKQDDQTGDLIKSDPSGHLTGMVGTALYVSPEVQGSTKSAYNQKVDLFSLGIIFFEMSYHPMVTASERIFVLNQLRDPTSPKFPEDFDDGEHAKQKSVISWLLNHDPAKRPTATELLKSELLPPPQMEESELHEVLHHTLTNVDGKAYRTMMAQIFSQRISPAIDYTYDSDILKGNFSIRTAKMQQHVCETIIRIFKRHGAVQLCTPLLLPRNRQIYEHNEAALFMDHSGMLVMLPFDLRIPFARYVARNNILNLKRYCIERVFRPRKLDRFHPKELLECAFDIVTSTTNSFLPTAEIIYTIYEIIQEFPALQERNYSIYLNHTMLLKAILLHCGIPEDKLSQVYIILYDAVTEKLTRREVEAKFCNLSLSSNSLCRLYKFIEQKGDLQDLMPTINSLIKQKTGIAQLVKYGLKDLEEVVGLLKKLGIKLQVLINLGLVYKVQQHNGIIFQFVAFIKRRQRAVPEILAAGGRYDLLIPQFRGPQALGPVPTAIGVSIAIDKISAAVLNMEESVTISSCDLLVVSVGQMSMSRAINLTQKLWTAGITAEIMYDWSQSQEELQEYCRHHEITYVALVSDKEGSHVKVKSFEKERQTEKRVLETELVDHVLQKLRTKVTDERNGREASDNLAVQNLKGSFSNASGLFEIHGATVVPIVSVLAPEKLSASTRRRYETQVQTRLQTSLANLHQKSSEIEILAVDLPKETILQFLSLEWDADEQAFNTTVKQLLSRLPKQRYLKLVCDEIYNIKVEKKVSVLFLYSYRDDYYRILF
Chain of intracellular GCN2 (phosphorylation of the GCN2 substrate eIF2α) (Q9P2K8 whole entry): as above

For orientation: IC50 means the point on the concentration scale where inhibition reaches its midpoint. With `COCCn1cc([C@@H]2C[C@H](C)CN(c3nccc(-c4cnc5ccc(C(F)(F)F)cn45)n3)C2)cn1` [I-146, 3-(2-((3S,5S)-3-(1-(2-methoxyethyl)-1H-pyrazol-4-yl)-5-methylpiperidin-1-yl)pyrimidin-4-yl)-6-(trifluoromethyl)imidazo[1,2-a]pyridine], the values for the IC50 in assay [1] and in assay [2] were 100 to 1000 nM and 500 to 5000 nM, respectively.
With `OC1(c2ccccc2)CCCN(c2ccnc(-c3cnc4cc(F)c(Cl)cn34)n2)C1` (stereo not shown) [I-81, 1-[2-(6-Chloro-7-fluoro-imidazo[1,2-a]pyridin-3-yl)-pyrimidin-4-yl]-3-phenyl-piperidin-3-ol], the Ki in assay [1] was in the range of 10 to 100 nM. Moreover, the IC50 in assay [2] lay within 500 to 5000 nM.
`OCC1CCN(c2ccnc(-c3cnc4cc(F)c(Cl)cn34)n2)CC1c1ccccc1` (stereo not shown) [I-83, {1-[2-(6-Chloro-7-fluoro-imidazo[1,2-a]pyridin-3-yl)-pyrimidin-4-yl]-3-phenyl-piperidin-4-yl}-methanol] registered a Ki in assay [1] of 10 to 100 nM. Further, the IC50 in assay [2] was in the range of 500 to 5000 nM.
The compound `CS(C)(=O)=NC1CCCN(c2ccnc(-c3cnc4cc(F)c(Cl)cn34)n2)C1` (stereo not shown) [I-49, ((1-(2-(6-Chloro-7-fluoroimidazo[1,2-a]pyridin-3-yl)pyrimidin-4-yl)piperidin-3-yl)imino)dimethyl-λ^6-sulfanone] came in with a Ki in assay [1] of 10 to 100 nM. Further, the IC50 in assay [2] is over 5000 nM.
For the compound `Cc1[nH]ncc1C1CN(c2ccnc(-c3cnc4ccc(Cl)cn34)n2)CC(C)N1S(C)(=O)=O` (stereo not shown) [I-268, 6-chloro-3-(4-(3-methyl-5-(5-methyl-1H-pyrazol-4-yl)-4-(methylsulfonyl)piperazin-1-yl)pyrimidin-2-yl)imidazo[1,2-a]pyridine], the concentration for half-maximal inhibition (IC50) in assay [1] is under 10 nM; in assay [2] it was 500 to 5000 nM.
In assay [1], `CC1CC(C(N)=O)C(C)N(c2ccnc(-c3cnc4ccc(Cl)cn34)n2)C1` (stereo not shown) [I-50, 1-[2-(6-Chloroimidazo[1,2-a]pyridin-3-yl)pyrimidin-4-yl]-2,5-dimethyl-piperidine-3-carboxamide] yielded a Ki of under 10 nM. The IC50 in assay [2] lay within 500 to 5000 nM.
In the case of `NC(=O)C1CN(c2ccnc(-c3cnc4ccc(C(F)(F)F)cn34)n2)CCN1C1CC1` (stereo not shown) [I-311, 1-cyclopropyl-4-(2-(6-(trifluoromethyl)imidazo[1,2-a]pyridin-3-yl)pyrimidin-4-yl)piperazine-2-carboxamide], the IC50 fell in the range of 10 to 100 nM in assay [1] and 500 to 5000 nM in assay [2].
As for `Cc1n[nH]nc1[C@H]1C[C@@H](C)CN(c2ccnc(-c3cnc4ccc(C(F)(F)F)cn34)n2)C1` [I-408, 3-(4-((3R,5S)-3-methyl-5-(5-methyl-2H-1,2,3-triazol-4-yl)piperidin-1-yl)pyrimidin-2-yl)-6-(trifluoromethyl)imidazo[1,2-a]pyridine], the IC50 in assay [1] lay in the range of 10 to 100 nM; in assay [2] it was 500 to 5000 nM.
In assay [1], `CS(=N)(=O)C[C@H]1CCCN(c2ccnc(-c3cnc4ccc(Cl)cn34)n2)C1` (stereo in doubt) [I-21, 6-Chloro-3-(4-(3-((methylsulfonimidoyl)methyl)piperidin-1-yl)pyrimidin-2-yl)imidazo[1,2-a]pyridine] gave a Ki of 10 to 100 nM. Also, the IC50 in assay [2] lay within 500 to 5000 nM.
Consider `CC1CN(c2ccnc(-c3cnc4ccc(C(F)(F)F)cn34)n2)CC(C)N1CC#N` (stereo not shown) [I-393, 2-(2,6-dimethyl-4-(2-(6-(trifluoromethyl)imidazo[1,2-a]pyridin-3-yl)pyrimidin-4-yl)piperazin-1-yl)acetonitrile], for which the 50% inhibitory concentration (IC50) in assay [1] fell in the range of 100 to 1000 nM; in assay [2], 500 to 5000 nM.
On to `C[C@@H]1C[C@H](N=S(C)(C)=O)CN(c2nccc(-c3cnc4ccc(C(F)(F)F)cn34)n2)C1` [I-169, dimethyl(((3 S,5R)-5-methyl-1-(4-(6-(trifluoromethyl)imidazo[1,2-a]pyridin-3-yl)pyrimidin-2-yl)piperidin-3-yl)imino)-λ6-sulfanone], for which the results for the half-maximal inhibitory concentration (IC50) in assay [1] and in assay [2] were 10 to 100 nM and 500 to 5000 nM, respectively.
For `C[C@@H]1CN(c2ccnc(-c3cnc4ccc(C(F)(F)F)cn34)n2)C[C@H](C)N1C(=O)C1CC1` [I-403, cyclopropyl(cis-2,6-dimethyl-4-(2-(6-(trifluoromethyl)imidazo[1,2-a]pyridin-3-yl)pyrimidin-4-yl)piperazin-1-yl)methanone], the IC50 in assay [1] was in the range of 100 to 1000 nM; in assay [2], 500 to 5000 nM.
Consider `FC(F)(F)c1ccc2ncc(-c3ccnc(N4CCOC(c5cn[nH]c5)C4)n3)n2c1` (stereo not shown) [I-9, 2-(1H-Pyrazol-4-yl)-4-(4-(6-(trifluoromethyl)imidazo[1,2-a]pyridin-3-yl)pyrimidin-2-yl)morpholine], for which, in assay [1], the Ki was under 10 nM. Moreover, the IC50 in assay [2] is under 500 nM.
For `C[C@@H]1[C@H](c2cn[nH]c2)N(C2COC2)CCN1c1ccnc(-c2cnc3ccc(C(F)(F)F)cn23)n1` [I-362, 4-[(2R,3 S)-2-methyl-4-(oxetan-3-yl)-3-(1H-pyrazol-4-yl)piperazin-1-yl]-2-[6-(trifluoromethyl)imidazo[1,2-a]pyridin-3-yl]pyrimidine], the IC50 in assay [1] was under 10 nM; in assay [2] it was under 500 nM.
Taken in the same sequence, the figures for `FC(F)(F)c1ccc2ncc(-c3nccc(N4CCN[C@@H](c5cn[nH]c5)C4)n3)n2c1` [I-533, (S)-3-(4-(3-(1H-pyrazol-4-yl)piperazin-1-yl)pyrimidin-2-yl)-6-(trifluoromethyl)imidazo[1,2-a]pyridine] were under 10 nM and under 500 nM.
As for `Cc1oncc1[C@@H]1CN(c2ccnc(-c3cnc4ccc(C(F)(F)F)cn34)n2)C[C@H](C)O1` [I-346, (2S,6R)-2-methyl-6-(5-methylisoxazol-4-yl)-4-(2-(6-(trifluoromethyl)imidazo[1,2-a]pyridin-3-yl)pyrimidin-4-yl)morpholine], the figures for the IC50 in assay [1] and in assay [2] were 10 to 100 nM and under 500 nM, respectively.
The like results for `C[C@@H]1C[C@H](N=S(C)(C)=O)CN(c2ccnc(-c3cnc4ccc(OC(F)(F)F)cn34)n2)C1` [I-290, dimethyl(((3 S,5R)-5-methyl-1-(2-(6-(trifluoromethoxy)imidazo[1,2-a]pyridin-3-yl)pyrimidin-4-yl)piperidin-3-yl)imino)-λ6-sulfanone] were, in that order, 10 to 100 nM and 500 to 5000 nM.
The like results for `CS(=O)(=O)N1CC2(CCCN(c3ccnc(-c4cnc5ccc(C(F)(F)F)cn45)n3)C2)C1` [I-448, 2-(methylsulfonyl)-6-(2-(6-(trifluoromethyl)imidazo[1,2-a]pyridin-3-yl)pyrimidin-4-yl)-2,6-diazaspiro[3.5]nonane] were, in that order, 10 to 100 nM and 500 to 5000 nM.
Turning to `NC(=O)[C@H]1CCCN(c2nc(-c3cnc4ccc(C(F)(F)F)cn34)ncc2F)C1` [I-278, (S)-1-(5-fluoro-2-(6-(trifluoromethyl)imidazo[1,2-a]pyridin-3-yl)pyrimidin-4-yl)piperidine-3-carboxamide], the figures for the 50% inhibitory concentration (IC50) in assay [1] and in assay [2] were under 10 nM and under 500 nM, respectively.
As for `CS(=O)(=O)NC[C@@H]1CN(c2ccnc(-c3cnc4ccc(Cl)cn34)n2)CCO1` [I-19, N-[[(2S)-4-[2-(6-Chloroimidazo[1,2-a]pyridin-3-yl)pyrimidin-4-yl]morpholin-2-yl]methyl]methanesulfonamide], the Ki in assay [1] lay within 10 to 100 nM. The IC50 in assay [2] lay in the range of 500 to 5000 nM.
Regarding `NC(=O)[C@H]1CCCN(c2nccc(-c3cnc4ccc(C(F)(F)F)cn34)n2)C1` [I-153, (S)-1-(4-(6-(trifluoromethyl)imidazo[1,2-a]pyridin-3-yl)pyrimidin-2-yl)piperidine-3-carboxamide], the IC50 in assay [1] was under 10 nM; in assay [2], under 500 nM.
Consider `CC(=O)N1C(C)CN(c2ccnc(-c3cnc4ccc(Cl)cn34)n2)CC1c1cn[nH]c1` (stereo not shown) [I-277, 1-(4-(2-(6-chloroimidazo[1,2-a]pyridin-3-yl)pyrimidin-4-yl)-2-methyl-6-(1H-pyrazol-4-yl)piperazin-1-yl)ethan-1-one], for which the figures for the IC50 in assay [1] and in assay [2] were 10 to 100 nM and 500 to 5000 nM, respectively.
The like results for `NC(=O)[C@@H]1CN(c2ccnc(-c3cnc4ccc(C(F)(F)F)cn34)n2)CCO1` [I-150, (S)-4-(2-(6-(trifluoromethyl)imidazo[1,2-a]pyridin-3-yl)pyrimidin-4-yl)morpholine-2-carboxamide] were, in that order, 10 to 100 nM and under 500 nM.

The record behind these values is patent US10793563B2, “GCN2 inhibitors and uses thereof” (Merck Patent GmbH, priority 2018, dated 2020).
